Tests used:
Assay type in all cases: cell-based, human
[1] = tested on: HLA-II complexes (HLA-DR, HLA-DP, HLA-DQ) of A549/ATC cells
[2] = tested on: HLA-II complexes (HLA-DR, HLA-DP, HLA-DQ) of HEK293T/ATC cells
[3] = tested on: HLA-II complexes of A549/ATC and HEK293T/ATC cells

| Sequence | Unique A549 peptides in segment [1] | Unique HEK293T peptides in segment [2] | Unique peptides in segment [3] | Detection as HLA-II peptide by LC-MS/MS [2] |
| --- | --- | --- | --- | --- |
| AALQIPFAMQMAYRENGIG [S:892-910] | 0 | 11 | 11 | – |
| ALHFLLFFRALPKS [ORF3a.iORF1: 28-41] | 0 | 1 | 1 | observed in the same fraction (fxn 3) in two biological replicates |
| ATREASVYAWNRKRISN [S:344-360] | 0 | 3 | 3 | – |
| CSNLLLQYGSFCTQLNRALTGIAVEQDKNTQE [S:749-780] | 0 | 10 | 10 | – |
| DGSEDNQTTTIQTIVE [nsp3: 174-189] | 0 | 1 | 1 | – |
| DSFVIRGDEVRQIAPG [S:398-413] | 0 | 1 | 1 | – |
| EPQIITTDNTFVSGN [S:1111-1125] | 1 | 0 | 1 | – |
| IAQFAPSASAFFG [N: 304-316] | 1 | 0 | 1 | – |
| ICASYQTQTNSPRRA [S:670-684] | 0 | 1 | 1 | – |
| INITRFQTLLALHRSYL [S: 233-249] | 0 | 1 | 1 | – |
| KKKADETQALPQRQKKQQTVTLLPAADLDDESKQLQQSMSSADSTQA [N: 373-419] | 5 | 69 | 69 | – |
| MAGNGGDAALALLLLDRLNQLESKMSGKGQQQQGQTVT [N: 210-247] | 21 | 0 | 21 | – |
| MDGSIIQFPNTYLEGSVR [nsp4: 194-211] | 0 | 5 | 5 | – |
| MDLFMRIFTIGTVTLKQGEIKDATPSDF [ORF3a: 1-28] | 1 | 4 | 4 | – |
| MDPKISEMHPALRLVDPQIQLAVTRMENA [ORF9b: 1-29] | 0 | 8 | 8 | – |
| NVPLHGTILTRPLLESELVIGAVILRGHLRIAGHHLGRCDIKDLPKEITVA [M: 121-171] | 16 | 18 | 34 | – |
| RIGMEVTPSGTWLTYTGAIKLDDKDPNEKDQVILLNKHIDAYKTEPP [N: 319-365] | 36 | 17 | 44 | – |
| SDNGPQNQRNAPRITE [N: 2-17] | 1 | 0 | 1 | – |
| SPDAVTAYNGYLTSSSK [nsp3: 661-677] | 0 | 1 | 1 | – |
| SVASQSIIAYTMSLGAEN [S:686-703] | 0 | 3 | 3 | – |
| TDHSSSSDNIALLVQ [M: 208-222] | 2 | 2 | 2 | – |
| TEIYQAGSTPCNGVEG [S:470-485] | 0 | 2 | 2 | – |
| TGPEAGLPYGANKDG [N: 115-129] | 1 | 0 | 1 | – |
| TPTWRVYSTGSNVFQTRAG [S:630-648] | 1 | 2 | 3 | – |
| TQLPPAYTNSFTRGVYYPDKVERSSVLHSTQDLFLPFFS [S: 22-60] | 13 | 0 | 13 | – |
| TQQLIRAAEIRASANLA [S:1009-1025] | 0 | 14 | 14 | – |
| TVEKGIYQTSNERVQPTES [S:307-325] | 3 | 3 | 4 | – |
| VGPKVYPIILRLGSPLS [ORF9b: 37-53] | 0 | 2 | 2 | – |
| YIINLIIKNLSKS [ORF6: 31-43] | 1 | 0 | 1 | – |

From patent US20260097115A1 (priority 2023, published 2026)
